From ChEMBL document CHEMBL1133233, “The design and synthesis of thrombin inhibitors: the introduction of in vivo efficacy and oral bioavailability into benzthiazolylalanine inhibitors” (Bioorg Med Chem Lett, 2000)
Values after ≈ are worked out from the molar mass of the structure shown.

Key:
[1] = Bioavailability in rat (intraduodenal administration); assay type: ADME, organism-based; details: in vivo
[2] = Oral bioavailability in rat; assay type: ADME, organism-based; details: in vivo
[3] = Aqueous solubility at pH 2; assay type: physicochemical
[4] = Aqueous solubility at pH 7; assay type: physicochemical
Plasminogen = Plasminogen (Homo sapiens, UniProt P00747); assay: Inhibitory activity against plasmin
Plasminogen, sequence (P00747 97-580 limits assumed): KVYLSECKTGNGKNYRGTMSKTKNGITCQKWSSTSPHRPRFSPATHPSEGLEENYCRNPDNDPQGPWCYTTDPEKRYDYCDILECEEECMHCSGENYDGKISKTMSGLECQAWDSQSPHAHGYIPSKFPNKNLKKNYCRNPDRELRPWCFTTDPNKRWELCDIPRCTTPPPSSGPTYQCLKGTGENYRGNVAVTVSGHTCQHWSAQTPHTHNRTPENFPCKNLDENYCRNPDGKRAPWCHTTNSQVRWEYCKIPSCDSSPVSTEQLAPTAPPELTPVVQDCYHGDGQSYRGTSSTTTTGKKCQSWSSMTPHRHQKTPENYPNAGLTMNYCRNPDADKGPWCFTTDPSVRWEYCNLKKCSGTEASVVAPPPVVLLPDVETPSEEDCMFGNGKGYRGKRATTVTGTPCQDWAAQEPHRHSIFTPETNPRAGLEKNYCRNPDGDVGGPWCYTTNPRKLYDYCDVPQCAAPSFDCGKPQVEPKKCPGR
Plasminogen, sequence (P00747 581-810 limits assumed): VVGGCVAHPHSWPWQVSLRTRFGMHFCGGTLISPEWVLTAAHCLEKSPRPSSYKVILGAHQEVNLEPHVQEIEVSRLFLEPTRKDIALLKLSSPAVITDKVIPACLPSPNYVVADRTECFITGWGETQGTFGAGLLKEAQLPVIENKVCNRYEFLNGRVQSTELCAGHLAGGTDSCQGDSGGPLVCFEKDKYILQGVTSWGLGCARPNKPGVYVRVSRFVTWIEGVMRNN

[5] = Effectiveness to inhibit coagulation in plasma measured as activated partial thromboplastin time (APTT); assay type: functional
Prothrombin = Prothrombin (Homo sapiens, UniProt P00734); assay: Evaluated for the binding affinity against thrombin
Serine protease 1 = Serine protease 1 (Homo sapiens, UniProt P07477); assay: Inhibitory activity against trypsin
Serine protease 1, sequence (P07477 whole entry): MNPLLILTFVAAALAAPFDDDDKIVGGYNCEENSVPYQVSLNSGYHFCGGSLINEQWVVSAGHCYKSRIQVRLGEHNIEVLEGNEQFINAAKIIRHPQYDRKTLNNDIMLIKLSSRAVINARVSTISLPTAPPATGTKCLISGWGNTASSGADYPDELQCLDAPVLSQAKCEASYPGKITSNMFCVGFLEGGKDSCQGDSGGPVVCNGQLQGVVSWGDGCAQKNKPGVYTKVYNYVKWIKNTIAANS

[6] = Inhibitory activity against TF/VIIa
Coagulation factor X = Coagulation factor X (Homo sapiens, UniProt P00742); assay: Inhibitory activity against Coagulation factor X
Coagulation factor X, sequence (P00742 41-179 limits assumed): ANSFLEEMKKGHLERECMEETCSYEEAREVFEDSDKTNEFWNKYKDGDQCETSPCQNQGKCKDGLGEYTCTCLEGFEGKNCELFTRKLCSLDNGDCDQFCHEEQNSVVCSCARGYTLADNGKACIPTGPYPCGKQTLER
Coagulation factor X, sequence (P00742 235-488 limits assumed): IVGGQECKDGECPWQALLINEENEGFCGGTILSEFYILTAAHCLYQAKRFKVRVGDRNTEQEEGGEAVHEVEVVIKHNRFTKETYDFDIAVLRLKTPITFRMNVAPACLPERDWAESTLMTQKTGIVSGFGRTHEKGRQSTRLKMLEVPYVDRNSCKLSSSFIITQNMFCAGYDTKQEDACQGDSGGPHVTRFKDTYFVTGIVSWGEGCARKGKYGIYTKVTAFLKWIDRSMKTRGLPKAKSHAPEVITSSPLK

Rattus norvegicus [7] = assay: Inhibition of platelet deposition was determined on arterial thrombosis in the rat at 20 mg/kg oral administration using an acute model of injury induced thrombus formation; assay type: functional; details: read-out: Inhibition
Rattus norvegicus [8] = assay: Inhibition of fibrin deposition was determined after 1 hr on arterial thrombosis in the rat at 20 mg/kg oral administration using an acute model of injury induced thrombus formation; assay type: functional
Rattus norvegicus [9] = assay: Inhibition of fibrin deposition was determined after 2 hr on arterial thrombosis in the rat at 20 mg/kg oral administration using an acute model of injury induced thrombus formation; assay type: functional
Rattus norvegicus [10] = assay: Inhibition of platelet deposition was determined on arterial thrombosis in the rat at 10 mg/kg oral administration using an acute model of injury induced thrombus formation; assay type: functional

## CC1(C)CNc2c(cc(CCC(=O)N3CCN(CC(=O)N4CCOCC4)CC3)cc2S(=O)(=O)N[C@@H](Cc2nc3ccccc3s2)C(=O)N2CCC(CCF)CC2)C1 [listing 1 of 2 here]
[1]
  bioavailability: 38%
[2]
  bioavailability: 28%
[3]
  solubility: 15000 µg/mL (≈ 18200 µM)
[4]
  solubility: 130 µg/mL (≈ 157 µM)
Plasminogen
  Ki: 212 µM
[5]
  APTT: 7 µM
Prothrombin
  Ki: 0.057 µM
Serine protease 1
  Ki: 153 µM
[6]
  Ki: 11600 µM
Coagulation factor X
  Ki: ≥ 200 µM

## CC1(C)CNc2c(cc(CCC(=O)N3CCN(Cc4ccncc4)CC3)cc2S(=O)(=O)N[C@@H](Cc2nc3ccccc3s2)C(=O)N2CCC(CCF)CC2)C1
[5]
  APTT: 9.7 µM
Prothrombin
  Ki: 0.027 µM

## CC1(C)CNc2c(cccc2S(=O)(=O)N[C@@H](Cc2nc3ccccc3s2)C(=O)N2CCC(CCF)CC2)C1
[5]
  APTT: 26.5 µM

## COCCOCOCc1cc2c(c(S(=O)(=O)N[C@@H](Cc3nc4ccccc4s3)C(=O)N3CCC(CCF)CC3)c1)NCC(C)(C)C2
[5]
  APTT: 18 µM
Prothrombin
  Ki: 0.125 µM

## CC(=O)N1CCN(C(=O)CCc2cc3c(c(S(=O)(=O)N[C@@H](Cc4nc5ccccc5s4)C(=O)N4CCC(CCF)CC4)c2)NCC(C)(C)C3)CC1
[5]
  APTT: 7.5 µM
Prothrombin
  Ki: 0.034 µM

## CN(C)C(=O)CCc1cc2c(c(S(=O)(=O)N[C@@H](Cc3nc4ccccc4s3)C(=O)N3CCC(CCF)CC3)c1)NCC(C)(C)C2
[5]
  APTT: 9.2 µM
Prothrombin
  Ki: 0.034 µM

## CC1(C)CNc2c(cc(CCCO)cc2S(=O)(=O)N[C@@H](Cc2nc3ccccc3s2)C(=O)N2CCC(CCF)CC2)C1
[5]
  APTT: 19 µM
Prothrombin
  Ki: 0.119 µM

## CC1(C)CNc2c(cc(CCCC(=O)O)cc2S(=O)(=O)N[C@@H](Cc2nc3ccccc3s2)C(=O)N2CCC(CCF)CC2)C1
[5]
  APTT: 16.6 µM
Prothrombin
  Ki: 0.094 µM

## CC1(C)CNc2c(cc(CC(=O)O)cc2S(=O)(=O)N[C@@H](Cc2nc3ccccc3s2)C(=O)N2CCC(CCF)CC2)C1
[5]
  APTT: 14.9 µM
Prothrombin
  Ki: 0.5 µM

## CC1(C)CNc2c(cc(CCC(=O)O)cc2S(=O)(=O)N[C@@H](Cc2nc3ccccc3s2)C(=O)N2CCC(CCF)CC2)C1
[1]
  bioavailability: 50%
[2]
  bioavailability: 0%
[4]
  solubility: 5.15 µg/mL (≈ 8.16 µM)
[5]
  APTT: 10.7 µM
Prothrombin
  Ki: 0.082 µM

## CC1(C)CNc2c(cc(CCO)cc2S(=O)(=O)N[C@@H](Cc2nc3ccccc3s2)C(=O)N2CCC(CCF)CC2)C1
[5]
  APTT: 13.7 µM
Prothrombin
  Ki: 0.039 µM

## CC1(C)CNc2c(cc(CCNC(N)=O)cc2S(=O)(=O)N[C@@H](Cc2nc3ccccc3s2)C(=O)N2CCC(CCF)CC2)C1
[5]
  APTT: 10.2 µM
Prothrombin
  Ki: 0.047 µM

## CC1(C)CNc2c(cc(CO)cc2S(=O)(=O)N[C@@H](Cc2nc3ccccc3s2)C(=O)N2CCC(CCF)CC2)C1
[5]
  APTT: 16.8 µM
Prothrombin
  Ki: 0.064 µM

## CC1(C)CNc2c(cc(C(=O)O)cc2S(=O)(=O)N[C@@H](Cc2nc3ccccc3s2)C(=O)N2CCC(CCF)CC2)C1
[5]
  APTT: 13 µM
Prothrombin
  Ki: 0.359 µM

## CNC(=O)OCc1cc2c(c(S(=O)(=O)N[C@@H](Cc3nc4ccccc4s3)C(=O)N3CCC(CCF)CC3)c1)NCC(C)(C)C2
[5]
  APTT: 20.7 µM
Prothrombin
  Ki: 0.077 µM

## CCOC(=O)c1cc2c(c(S(=O)(=O)N[C@@H](Cc3nc4ccccc4s3)C(=O)N3CCC(CCF)CC3)c1)NCC(C)(C)C2
[5]
  APTT: 105.4 µM

## CC1(C)CNc2c(cc(CCC(=O)N3CCN(CC(=O)N4CCOCC4)CC3)cc2S(=O)(=O)N[C@@H](Cc2nc3ccccc3s2)C(=O)N2CCC(CCF)CC2)C1 [listing 2 of 2 here]
Rattus norvegicus [7]
  inhibition in vivo at 20 mg/kg: 60%
Rattus norvegicus [8]
  inhibition in vivo at 20 mg/kg: 48%
Rattus norvegicus [9]
  inhibition in vivo at 20 mg/kg: 43%
Rattus norvegicus [10]
  inhibition in vivo at 10 mg/kg: 60%

## CC1(C)CNc2c(cccc2S(=O)(=O)N[C@@H](CCCN=C(N)N)C(=O)N2CCC(CCF)CC2)C1 [CGH-728]
[5]
  APTT: 2.1 µM
Prothrombin
  Ki: 0.006 µM
